Data set [1] concerns A549. The conditions noted are these: A549, MTT assay, 96 h; cited from earlier work.
For data set [2], the system named is SW480. The conditions noted are these: SW480, MTT assay, 96 h; cited from earlier work.
The test system of data set [3] is CH1/PA‐1. The conditions noted are these: CH1/PA‐1, MTT assay, 96 h; cited from earlier work.
Data set [4] concerns human cancer cell lines CH1/PA‐1, SW480, A549. More on the design: method as in PMID 26365319. Particulars: cited from earlier work.
In data set [5] the test system is A549. Kind of data set: MTT cytotoxicity assay, monolayer culture. Format: cell-based, human. Particulars: exposure time 96 h, means ± SDs.
In data set [6] the test system is CH1/PA‐1. The data set can be described thus: MTT cytotoxicity assay, monolayer culture. The conditions noted are these: CH1/PA‐1, MTT assay, exposure time 96 h, means ± SDs. Format: cell-based, human.
Data set [7] has as its system SW480. The data set can be described thus: MTT cytotoxicity assay, monolayer culture. Format: cell-based, human. Particulars: SW480, MTT assay, exposure time 96 h, means ± SDs.
Data set [8] in a line: UV/Vis stability in aqueous solution. Format: physicochemical. Particulars: in PBS, rank among osmium complexes. On the procedure:
In order to investigate complex stabilities, UV/Vis spectrophotometry was conducted for all complexes. […] This process is fastest for complex 4 b* followed by complexes 4 a* and finally 4 c* in PBS. Decomposition of the osmium compounds was slightly slower in pure water (Figure 5).
UV/Vis spectra were recorded using a Hewlett Packard 8452A diode‐array spectrophotometer between 200–800 nm. The path length (l) was either 1 or 2 cm. UV/Vis spectra were recorded to confirm complex stability in aqueous systems and over a pH range 5.8–7.9.

For data set [9] the following is noted: pH 5.8.
Method: In order to investigate a possible pH influence on complex stability and to gather further insights into the instability of the osmium complexes, UHPLC kinetic measurements were carried out at pH values of 5.8, 6.2, 6.7, 7.2 and 7.9 in phosphate buffered solution via UHPLC. […] Due to pump pressure fluctuations the retention times tended to shift ±0.18 min.
Stock solutions containing the desired complex in DMSO (5 mM) were diluted with phosphate buffer to a final concentration of 50 μM compound in 1 % DMSO/20 mM buffer and directly analyzed via gradient UHPLC runs over 24 h. Phosphate buffers at pH 5.8, 6.2, 6.7, 7.2 and 7.9 were employed to ensure a constant pH value. The instrument was set to 0.6 mL min^−1 flow rate, 37 °C sampler temperature, 25 °C column compartment, 225 nm detection wavelength, 95 % MeOH in MiliQ water +0.1 % formic acid over 7.0 min.
For data set [10] the following is noted: 1H NMR kinetics in D2O/1 % [D6]DMSO, repeated 1:1 dilution.
Method: In order to elucidate the fate of complex 4 c* and a possible concentration effect on its stability, additional NMR and MS experiments were carried out. […] Consequently, the sample was diluted 1:1 (3 mg mL^−1) and kinetics were measured over 24 h a second time. This step was repeated six times in total (after 24, 48, 72, 96, 168, and 192 h; resulting in a final concentration of 176 μM). […] It was impossible to measure 2D NMR sets throughout the experiment, due to the low sample concentration.
Data set [11] has as its system human cancer cell lines CH1/PA‐1, SW480, A549. The conditions noted are these: tested cancer cell lines.
Method: Cytotoxicity of the compounds in monolayer cultures was determined by the colorimetric MTT assay (MTT=3‐(4,5‐dimethyl‐2‐thiazolyl)‐2,5‐diphenyl‐2H‐tetrazolium bromide). 1×10^3 CH1/PA‐1, 2×10^3 SW480 and 3×10^3 A549 cells were seeded in 100 μL supplemented MEM per well into 96‐well flat‐bottom microculture plates. […] After 96 h, the drug‐containing medium was replaced with 100 μL of RPMI 1640/MTT mixture [6 parts of RPMI 1640 medium (supplemented with 10 % heat‐inactivated fetal bovine serum and 4 mM L‐glutamine), 1 part of MTT solution in phosphate‐buffered saline (5 mg mL^−1)]. After incubation for 4 h, the mixture was replaced with 150 μL DMSO per well to dissolve the formazan product formed by viable cells. Optical densities at 550 nm (and at a reference wavelength of 690 nm) were measured with a microplate reader (ELx808, Bio‐Tek).

Read-outs that look alike come from different tables or passages of the source.

Regarding `N.N.[Cl][Pt][Cl]` [Cisplatin], the IC50 was 1300 ± 400 nM with A549 [1], 3500 ± 300 nM in the data set with SW480 [2] and 160 ± 30 nM in the data set with CH1/PA‐1 [3]. Further, the “activity in CH1/PA‐1 cells relative to SW480 cells” value in data set [4] was “up to 22 times”.

As to `Cc1c([O-])c(=S)ccn1-c1ccccc1.Cc1ccc(C(C)C)cc1.[Cl-].[Os+2]` [Compound 4 b, Chlorido[2‐methyl‐3‐(oxo‐κO)‐1‐phenylpyridine‐4(1H)‐thionato‐κS](η^6‐p‐cymene)osmium(II)], the IC50 with A549 [5] turned out to be 2200 ± 1100 nM; with CH1/PA‐1 [6], 1130 ± 30 nM; in the data set on SW480 [7] it was 5800 ± 300 nM. For the same compound, the “decomposition speed by UV/Vis” value in data set [8] is “fastest”.

For the compound `Cc1c([O-])c(=S)ccn1Cc1ccccc1.Cc1ccc(C(C)C)cc1.[Cl-].[Os+2]` [Compound 4 c, Chlorido[1‐benzyl‐2‐methyl‐3‐(oxo‐κO)‐pyridine‐4(1H)‐thionato‐κS](η^6‐p‐cymene)osmium(II)], the results for the IC50 with A549 [5], with CH1/PA‐1 [6] and with SW480 [7] were 2200 ± 1200 nM, 1300 ± 200 nM and 5600 ± 700 nM, respectively. Further, the “stability by UHPLC” value in data set [9] was “stable over 24 h”. The “dilution at which formation of a second species became apparent” value in [10] was 375 µg/mL. Also, the “IC50 values, in words” value in data set [11] was “low micromolar range”.

(Values after publication PMC7217150, “Synthesis, Modification, and Biological Evaluation of a Library of Novel Water‐Soluble Thiopyridone‐Based Organometallic Complexes and Their Unexpected (Biological) Behavior” (Chemistry (Weinheim an Der Bergstrasse, Germany), 2020).)
